Each compound was assayed against PDE10 (UniProt Q9Y233) (assay: PDE10 enzyme inhibition, IMAP TR-FRET assay (MPDE10A7 Enzyme Activity and Inhibition)). Conditions: IC50 class against PDE10; read-out: IC50.
Format: biochemical
Description: All compounds were divided in five classes based on their IC50 values against PDE10. The range of the IC50 in each class is as follows:
An IMAP TR-FRET assay was used to analyze the enzyme activity (Molecular Devices Corp., Sunnyvale Calif.). 5 μL of serial diluted PDE10A (BPS Bioscience, San Diego, Calif.) or tissue homogenate was incubated with equal volumes of diluted fluorescein labeled cAMP or cGMP for 60 min in 384-well polystyrene assay plates (Corning, Corning, N.Y.) at room temperature. After incubation, the reaction was stopped by adding 60 μL of diluted binding reagents and was incubated for 3 hours to overnight at room temperature. The plates were read on an Envision (Perkin Elmer, Waltham, Mass.) for time resolved fluorescence resonance energy transfer. The data were analyzed with GraphPad Prism (La Jolla, Calif.).
Enzyme Inhibition. To check the inhibition profile, 5 μL of serial diluted compounds were incubated with 5 μL of diluted PDE10 enzyme (BPS Bioscience, San Diego, Calif.) or tissue homogenate in a 384-well polystyrene assay plate (Corning, Corning, N.Y.) for 30 min at room temperature. After incubation, 10 μL of diluted fluorescein labeled cAMP or cGMP substrate were added and incubated for 60 min at room temperature. The reaction was stopped by adding 60 μL of diluted binding reagents and plates were read on an Envision (Perkin Elmer, Waltham, Mass.) for time resolved fluorescence resonance energy transfer. The data were analyzed with GraphPad Prism (La Jolla, Calif.).
The tabulated IC50 data represent an average IC50 data for each compound.

IC50 [nM] | Compound
< 25 | 1H-BENZIMIDAZOL-2-YL(4-((3-(CIS-4-HYDROXYCYCLOHEXYL)-2-PYRAZINYL)OXY)PHENYL)METHANONE AND 1H-BENZIMIDAZOL-2-YL(4-((3-(TRANS-4-HYDROXYCYCLOHEXYL)-2-PYRAZINYL)OXY)PHENYL)METHANONE [Example 188]
< 25 | COCC1CCN(c2nccnc2Oc2ccc(Nc3nc4ccccc4s3)cc2)C1 (racemic) [Example 88, N-(4-(3-(3-(methoxymethyl)-pyrrolidin-1-yl)pyrazin-2-yl-oxy)phenyl)benzo[d]thiazol-2-amine]
< 25 | CC1CN(c2nccnc2Oc2ccc(Nc3nc4ccccc4s3)cc2)CC(=O)N1 (racemic) [Example 94, 4-(3-(4-(benzo[d]thiazol-2-ylamino)phenoxy)pyrazin-2-yl)-6-methylpiperazin-2-one]
< 25 | OC1C=C(c2nccnc2Oc2ccc(Nc3nc4ccccc4s3)c(F)c2)CCC1 (racemic) [Example 137, (rac)-3-(3-(4-(benzo[d]thiazol-2-ylamino)-3-fluorophenoxy)pyrazin-2-yl)cyclohex-2-enol]
< 25 | O=C(c1ccc(Oc2nccnc2[C@H]2CCC[C@@H](O)C2)cc1)c1nc2ccccc2[nH]1 (racemic) [Example 189, (rac)-cis-(1H-benzo[d]imidazol-2-yl)(4-(3-(3-hydroxycyclohexyl)pyrazin-2-yloxy)phenyl)methanone]
< 25 | O=C(c1ccc(Oc2nccnc2[C@H]2CCC[C@H](O)C2)cc1)c1nc2ccccc2[nH]1 (racemic) [Example 190, (rac)-trans-(1H-benzo[d]imidazol-2-yl)(4-(3-(3-hydroxycyclohexyl)pyrazin-2-yloxy)phenyl)methanone]
< 25 | O[C@H]1CCC[C@@H](c2nccnc2Oc2ccc(Nc3nc4ccccc4s3)cc2)C1 (racemic) [Example 191, (rac)-cis-3-(3-(4-(benzo[d]thiazol-2-ylamino)phenoxy)pyrazin-2-yl)cyclohexanol]
< 25 | O[C@H]1CCC[C@H](c2nccnc2Oc2ccc(Nc3nc4ccccc4s3)cc2)C1 (racemic) [Example 192, (rac)-trans-3-(3-(4-(benzo[d]thiazol-2-ylamino)phenoxy)pyrazin-2-yl)cyclohexanol]
< 25 | O=C1CCCC(c2nccnc2Oc2ccc(Nc3nc4ccccc4s3)cc2)C1 (racemic) [Example 194, (rac)-3-(3-(4-(benzo[d]thiazol-2-ylamino)phenoxy)pyrazin-2-yl)cyclohexanone]
< 25 | O=C1CCCC(c2nccnc2Oc2ccc(C(=O)c3nc4ccccc4[nH]3)cc2)C1 (racemic) [Example 210, (rac)-3-(3-(4-(1H-benzo[d]imidazole-2-carbonyl)phenoxy)pyrazin-2-yl)cyclohexanone]
< 25 | CC(=O)N1CCCC(c2nccnc2Oc2ccc(C(=O)c3nc4ccccc4[nH]3)cc2)C1 (racemic) [Example 251, 1-(3-(3-(4-(1H-benzo[d]imidazole-2-carbonyl)phenoxy)pyrazin-2-yl)piperidin-1-yl)ethanone 2,2,2-trifluoroacetate]
< 25 | CC(Cc1ccccn1)NC(=O)c1nccnc1Oc1ccc(C(=O)c2nc3ccccc3[nH]2)cc1 (racemic) [Example 259, (rac)-3-(4-(1H-benzo[d]imidazole-2-carbonyl)phenoxy)-N-(1-(pyridin-2-yl)propan-2-yl)pyrazine-2-carboxamide]

Same assay, conditions: PDE10 enzyme inhibition; average IC50 data for each compound; read-out: Average IC50

Compound | IC50 [nM]
Clc1nccnc1Oc1ccc(Nc2nc3ccccc3s2)cc1 | 603
CCOc1nccnc1Oc1ccc(C(=O)c2nc3ccccc3[nH]2)cc1 | 46
O=C(c1ccc(Oc2nccnc2C(=O)O)cc1)c1nc2ccccc2[nH]1 | 556
O=C(c1ccc(Oc2nccnc2Cl)cc1)c1nc2ncccc2[nH]1 | 171
OC(c1ccc(Oc2nccnc2C2CCOCC2)cc1)c1nc2ccccc2[nH]1 (centres unmarked) | 386
FC(F)(c1ccc(Oc2nccnc2C2CCOCC2)cc1)c1nc2ccccc2[nH]1 | 52.9
Cn1c(C(=O)c2ccc(Oc3nccnc3Cl)cc2)nc2ccccc21 | 187
c1ccc(Nc2ccc(Oc3nccnc3NCC3CCNCC3)cc2)nc1 | 814
CC1(C)CCC(=O)[C@H](c2nccnc2Oc2ccc(C(=O)c3nc4ccccc4[nH]3)cc2)C1 | 41.8
CC1(C)CCC(=O)[C@@H](c2nccnc2Oc2ccc(C(=O)c3nc4ccccc4[nH]3)cc2)C1 | 154
O=C(c1ccc(Oc2nccnc2Cl)cc1)c1nc2cccc(F)c2[nH]1 | 406

The remaining lines, values ahead:

IC50 [nM] | Compound
27 | O=C(c1ccc(Oc2nccnc2N2CCC(N3CCOCC3)CC2)cc1)c1nc2ccccc2[nH]1
16.1 | O=C(c1ccc(Oc2nccnc2C2=CCCOC2)cc1)c1nc2ccccc2[nH]1
12.8 | CN1CCC2(CCN(c3nccnc3Oc3ccc(C(=O)c4nc5ccccc5[nH]4)cc3)CC2)C1=O
11.6 | O=C(c1ccc(Oc2nccnc2N2CCOCC2)cc1)c1nc2ncccc2[nH]1
10.9 | COc1ccc(COc2ncccc2-c2nccnc2Oc2ccc(C(=O)c3nc4ccccc4[nH]3)cc2)cc1
6.94 | O=C(c1ccc(Oc2nccnc2N2CC(O)C2)cc1)c1nc2ccccc2[nH]1
6.79 | N#C[C@@H]1CCCN(c2nccnc2Oc2ccc(C(=O)c3nc4ccccc4[nH]3)cc2)C1 (stereo in doubt)
6.03 | Cc1nnc2n1CCN(c1nccnc1Oc1ccc(C(=O)c3nc4ccccc4[nH]3)cc1)C2
5.19 | CCOC(=O)C1CCN(c2nccnc2Oc2ccc(C(=O)c3nc4ccccc4[nH]3)cc2)CC1
5.12 | O=C(c1ccc(Oc2nccnc2N2CC[C@H](O)C2)cc1)c1nc2ccccc2[nH]1
4.72 | C[C@H](Cc1ccccn1)NC(=O)c1nccnc1Oc1ccc(C(=O)c2nc3ccccc3[nH]2)cc1 (racemic)
4.64 | C[C@@H]1CN(c2nccnc2Oc2ccc(Nc3nc4ccccc4s3)cc2)CC(=O)N1 (racemic)
4 | O=C(c1ccc(Oc2nccnc2N2CCC(CCO)CC2)cc1)c1nc2ccccc2[nH]1
3.53 | O=C(c1ccc(Oc2nccnc2-c2cccnc2F)cc1)c1nc2ccccc2[nH]1
3.36 | O=C(c1ccc(Oc2nccnc2C2=CCOCC2)cc1)c1nc2ccccc2[nH]1
2.54 | O=C(c1ccc(Oc2nccnc2N2CC[C@H](CO)C2)cc1)c1nc2ccccc2[nH]1
2.05 | O=C(c1ccc(Oc2nccnc2N2CC[C@@H](CO)C2)cc1)c1nc2ccccc2[nH]1
1.69 | O=C(c1ccc(Oc2nccnc2C2=CC[C@@H](O)CC2)cc1)c1nc2ccccc2[nH]1 (racemic)
1.37 | COC[C@@H]1CCCN1c1nccnc1Oc1ccc(C(=O)c2nc3ccccc3[nH]2)cc1
1.33 | O=C1CCCC(c2nccnc2Oc2ccc(C(=O)c3nc4ccccc4[nH]3)cc2)C1 (centres unmarked)
1.21 | O=C1CCCC(c2nccnc2Oc2ccc(Nc3nc4ccccc4s3)cc2)C1 (centres unmarked)
1.18 | O=C(c1ccc(Oc2nccnc2N2CCC(C(=O)O)CC2)cc1)c1nc2ccccc2[nH]1
1.12 | O=C(c1ccc(Oc2nccnc2N2CCC[C@H]2CO)cc1)c1nc2ccccc2[nH]1
0.992 | O=C(c1ccc(Oc2nccnc2[C@@H]2CCC[C@@H](O)C2)cc1)c1nc2ccccc2[nH]1
0.426 | O=C(c1ccc(Oc2nccnc2[C@H]2CC[C@H](O)CC2)cc1)c1nc2ccccc2[nH]1
0.32 | O=C(c1ccc(Oc2nccnc2N2CCC(CO)CC2)cc1)c1nc2ccccc2[nH]1
0.206 | COC(=O)N1CCC(c2nccnc2Oc2ccc(Nc3nc4ccccc4s3)cc2)CC1
